Data set [1] is described as follows: Parallel artificial membrane permeability assay (PAMPA). The format is in vitro ADME. The settings on record: passive permeability. From the text:
(§1) Preliminary In Vitro Pharmacokinetic Assays.

For data set [2], the target named is P-glycoprotein (P-gp) (Homo sapiens, UniProt P08183). Description: P-glycoprotein (P-gp) efflux. The format is in vitro ADME. The following applies: for P-gp: Table 9.
Source text: as §1

Data set [3] relates to primary murine Hh-dependent MB cell line (MERP). Description: Antiproliferation in primary Hh-dependent MB cells (MERP). The format is cell-based. The settings on record: Mus musculus, Table 6. How it is done:
Secondary In Vitro Evaluation. Based on their activity in ASZ cells, several compounds were evaluated further in a primary murine Hh-dependent MB cell line (MERP).
(§2) General Information for Cell Culture Studies Protocols for general cell culture, qPCR, and Hh inhibition ASZ cells are as previously described.
(§3) General Information for Cell Culture Studies. Protocols for general cell culture, qPCR, and Hh inhibition ASZ cells are as previously described.

Data set [4] is described as follows: Metabolic half-life and clearance (HLM). In kind it is in vitro ADME.
Data set [5] is described as follows: Solubility.
The target of data set [6] is T1, BCRP (Homo sapiens, UniProt Q9UNQ0).
T1 sequence (Q9UNQ0 1-655): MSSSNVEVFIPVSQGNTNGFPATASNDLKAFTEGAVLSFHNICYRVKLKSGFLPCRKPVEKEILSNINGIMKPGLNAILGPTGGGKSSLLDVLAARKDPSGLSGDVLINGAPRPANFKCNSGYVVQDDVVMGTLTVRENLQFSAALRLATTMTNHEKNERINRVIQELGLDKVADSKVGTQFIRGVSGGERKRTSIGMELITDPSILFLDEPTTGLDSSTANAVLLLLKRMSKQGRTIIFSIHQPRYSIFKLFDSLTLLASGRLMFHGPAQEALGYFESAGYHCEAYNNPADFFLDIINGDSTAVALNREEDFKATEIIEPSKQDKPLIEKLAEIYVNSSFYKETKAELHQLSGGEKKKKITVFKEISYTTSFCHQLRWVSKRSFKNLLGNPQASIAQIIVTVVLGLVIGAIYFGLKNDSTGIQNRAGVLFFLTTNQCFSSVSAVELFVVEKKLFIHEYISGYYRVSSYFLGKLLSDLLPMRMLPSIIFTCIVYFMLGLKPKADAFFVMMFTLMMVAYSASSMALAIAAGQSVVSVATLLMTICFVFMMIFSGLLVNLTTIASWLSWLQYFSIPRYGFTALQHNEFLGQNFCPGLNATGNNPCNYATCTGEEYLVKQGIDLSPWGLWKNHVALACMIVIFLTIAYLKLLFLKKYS
Description: BCRP efflux. The settings on record: Table 9. In kind it is in vitro ADME.
Source text: as §1

Data set [7] relates to Hh pathway. The following applies: background; read-out: IC50 (Hh pathway inhibitor); cited from earlier work.
Data set [8] concerns Gli1 mRNA levels in the murine BCC cell line ASZ-001 (Hh pathway). Description: Hh pathway inhibition: endogenous Gli1 mRNA (qRT-PCR) in ASZ-001 cells. The format is cell-based. The settings on record: Mus musculus. On the procedure: Initial Hh inhibition studies.
as §2, §3
Gene Expression Assay Protocol (ASZ-001): Cells are seeded (10,000 cells per well; 100 μL total volume per well) in a 96-well tissue culture plate. After 24 h of incubation (37° C., 5% CO2), growth media was removed and replaced with low FBS media. Cells were incubated for an additional 24 h. After this time, DMSO (vehicle control) and liposomes (Aqueous Solution) were added to the wells. […]
Rt-PCR Protocol: Following treatment and incubation periods, both RNA extraction and cDNA synthesis were performed using a TaqMan Cells-to-CT (fast) kit. cDNA synthesis utilized a BioRad MyCycler and was programmed according to the manufacturer's instructions. Quantitative RT-PCR was performed on an ABI 7500 system and made use of the following TaqMan Gene Expression Probes: mouse ActB (Mm00607939_s1) and mouse Gli1 (Mm00494654_m1). Relative gene expression levels were computed via ΔΔCT method using GraphPad Prism. Corresponding IC50 values were calculated as mean±SEM for at least three separate experiments performed in triplicate.
(Quantitative PCR measures a nucleic acid by following its amplification.)

For data set [9] the test system is unchanged. The following applies: background, read-out: IC50 (Hh signaling); cited from earlier work.

By IC50 is commonly meant the concentration at which inhibition is half-maximal. What is called Solubility is the dissolved amount per volume that the medium holds.

SMILES strings stand for the structures. ≈ marks a conversion by molar mass, not a printed value. Read-outs that look alike come from different tables or passages of the source.

P-glycoprotein (P-gp), sequence (P08183 whole entry): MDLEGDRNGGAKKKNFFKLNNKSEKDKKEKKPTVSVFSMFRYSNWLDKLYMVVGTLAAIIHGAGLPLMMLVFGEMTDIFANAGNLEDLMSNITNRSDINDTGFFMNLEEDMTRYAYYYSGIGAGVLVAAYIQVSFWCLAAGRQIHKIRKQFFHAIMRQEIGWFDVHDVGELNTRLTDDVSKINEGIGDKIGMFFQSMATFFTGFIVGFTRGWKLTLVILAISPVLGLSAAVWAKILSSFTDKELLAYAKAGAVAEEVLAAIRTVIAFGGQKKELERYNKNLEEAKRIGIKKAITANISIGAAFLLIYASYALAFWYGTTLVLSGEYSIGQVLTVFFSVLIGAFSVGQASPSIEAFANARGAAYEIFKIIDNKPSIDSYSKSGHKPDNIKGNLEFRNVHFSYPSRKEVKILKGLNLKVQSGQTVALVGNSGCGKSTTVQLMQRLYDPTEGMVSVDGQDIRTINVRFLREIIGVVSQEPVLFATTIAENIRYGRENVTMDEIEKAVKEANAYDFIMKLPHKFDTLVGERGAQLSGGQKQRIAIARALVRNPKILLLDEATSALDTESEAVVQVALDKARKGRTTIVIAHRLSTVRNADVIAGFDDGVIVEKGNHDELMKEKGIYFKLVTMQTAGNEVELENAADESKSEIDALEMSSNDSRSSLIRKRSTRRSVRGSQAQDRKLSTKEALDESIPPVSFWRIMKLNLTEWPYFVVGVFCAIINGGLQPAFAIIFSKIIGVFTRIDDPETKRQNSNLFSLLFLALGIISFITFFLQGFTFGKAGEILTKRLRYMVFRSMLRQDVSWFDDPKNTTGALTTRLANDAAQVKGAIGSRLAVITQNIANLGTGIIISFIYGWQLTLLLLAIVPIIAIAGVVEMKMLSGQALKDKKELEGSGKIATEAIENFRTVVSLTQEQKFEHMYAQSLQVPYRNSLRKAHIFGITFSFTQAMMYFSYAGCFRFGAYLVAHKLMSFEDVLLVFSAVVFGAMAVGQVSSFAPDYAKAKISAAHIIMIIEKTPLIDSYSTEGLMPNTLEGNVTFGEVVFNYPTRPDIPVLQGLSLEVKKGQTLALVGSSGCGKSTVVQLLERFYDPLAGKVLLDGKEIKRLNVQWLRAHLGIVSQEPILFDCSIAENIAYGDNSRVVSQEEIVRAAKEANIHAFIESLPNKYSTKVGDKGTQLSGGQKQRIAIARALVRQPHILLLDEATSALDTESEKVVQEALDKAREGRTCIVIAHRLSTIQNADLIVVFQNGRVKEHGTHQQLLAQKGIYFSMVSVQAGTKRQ

Take `C[C@]1(c2ccc(Cl)cc2Cl)OC[C@@H](COc2ccc(N3CCN(c4ccc(NC(=O)c5cccnc5)cc4)CC3)cc2)O1` [Compound 18, N-(4-(4-(4-(((2S,4R)-2-(2,4-dichlorophenyl)-2-methyl-1,3-dioxolan-4-yl)methoxy)phenyl)piperazin-1-yl)phenyl)nicotinamide]: the PAMPA entry in data set [1] is “Poor”. Also, the P-gp entry in data set [2] was “No”. In addition, the IC50 in [3] stood at 1100 ± 600 nM. In addition, the “T1/2 (HLM, min)” value in [4] is on record as “significantly different half-lives”. Moreover, the “Solubility” value in [5] worked out at 0.0069 µM (≈ 0.00427 µg/mL). In [6], the BCRP entry was “No”.

For `CCC(C)n1ncn(-c2ccc(N3CCN(c4ccc(OCC5COC(Cn6cncn6)(c6ccc(Cl)cc6Cl)O5)cc4)CC3)cc2)c1=O` (centres unmarked) [ITZ, Itraconazole, reference compound], the PAMPA entry in [1] was “Moderate”. The P-gp entry in data set [2] is on record as “No”. Besides, the “T1/2 (HLM, min)” value in [4] stood at 27.0 ± 6.2 min. The IC50 was 690 nM in data set [7]; 0.11 ± 0.025 µM in data set [8] (ASZ001, 48 h, read-out: IC50 (μM) 48 h); 0.14 ± 0.012 µM in [8] (ASZ001, 96 h, read-out: IC50 (μM) 96 h). The “Solubility” value in data set [5] is 0.8 µM (≈ 0.565 µg/mL). The BCRP entry in [6] was “No”.

For the compound `CC[C@@H]([C@H](C)O)n1ncn(-c2ccc(N3CCN(c4ccc(OC[C@@H]5CO[C@@](Cn6cncn6)(c6ccc(F)cc6F)C5)cc4)CC3)cc2)c1=O` [PSZ, Posaconazole], the “P-gp (Efflux)” value in data set [2] (Table P1) was “substrate for P-gp”. Further, the half-inhibitory concentration (IC50) in [9] was 540 nM; in data set [8] (ASZ001, 48 h), 0.5 ± 0.1 µM.
